From paper PMC10648852, “Molecular drivers of resistance to sulbactam-durlobactam in contemporary clinical isolates of Acinetobacter baumannii” (Antimicrobial Agents and Chemotherapy, 2023)
Read-outs that look alike come from different tables or passages of the source.

How the values were obtained:
Assay in all cases: microbe, parasite or virus in culture
[1] = tested on: A. pittii clinical isolates; format: cell-based; details: Acinetobacter pittii
Outline: (§1)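 Broth microdilution MICs following CLSI methods, interpreted with CLSI breakpoints where available. Sulbactam tested as twofold dilutions combined with fixed 4 µg/mL durlobactam.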

[2] = tested on: A. baumannii clinical isolates; format: cell-based; details: Acinetobacter baumannii
Outline: as §1

[3] = tested on: A. nosocomialis clinical isolate; format: cell-based; details: Acinetobacter nosocomialis, isolate ARC7023 (IHMA 2118812), France, BSI, 2019, read-out: MIC
Outline: as §1

[4] = tested on: ABC clinical isolates with SUL-DUR MIC > 4 µg/mL; format: cell-based, Acinetobacter baumannii-calcoaceticus complex
Outline: as §1

C[C@@H](O)[C@H]1C(=O)N2C(C(=O)O)=C(S[C@@H]3CN[C@H](C(=O)N(C)C)C3)[C@H](C)[C@H]12 [meropenem]
MIC ([1]; isolate ARC6949 (IHMA 1898982), Romania, RTI, 2018, read-out: MIC): > 64 µg/mL
MIC ([1]; isolate ARC6951 (IHMA 1776233), Philippines, RTI, 2018, read-out: MIC): > 64 µg/mL
MIC ([1]; isolate ARC6952 (IHMA 1899008), Romania, RTI, 2018, read-out: MIC): > 64 µg/mL
MIC ([1]; isolate ARC7087 (IHMA 2212062), Colombia, BSI, 2020, read-out: MIC): > 64 µg/mL
MIC ([2]; isolate ARC6644 (IHMA 1420327), Mexico, UTI, 2016, read-out: MIC): 64 µg/mL
MIC ([2]; isolate ARC6645 (IHMA 1435703), France, UTI, 2016, read-out: MIC): > 64 µg/mL
MIC ([2]; isolate ARC6646 (IHMA 1484127), United States, RTI, 2016, read-out: MIC): 64 µg/mL
MIC ([2]; isolate ARC6647 (IHMA 1386786), Argentina, RTI, 2016, read-out: MIC): > 64 µg/mL
MIC ([2]; isolate ARC6648 (IHMA 1407634), Spain, RTI, 2016, read-out: MIC): > 64 µg/mL
MIC ([2]; isolate ARC6650 (IHMA 1457337), Argentina, RTI, 2016, read-out: MIC): 64 µg/mL
MIC ([2]; isolate ARC6652 (IHMA 1465642), Belgium, RTI, 2016, read-out: MIC): > 64 µg/mL
MIC ([2]; isolate ARC6653 (IHMA 1308777), Vietnam, RTI, 2016, read-out: MIC): > 64 µg/mL
MIC ([2]; isolate ARC6799 (IHMA 1562935), Spain, UTI, 2017, read-out: MIC): 64 µg/mL
MIC ([2]; isolate ARC6800 (IHMA 1557526), Turkey, RTI, 2017, read-out: MIC): 64 µg/mL
MIC ([2]; isolate ARC6801 (IHMA 1662094), Thailand, RTI, 2017, read-out: MIC): > 64 µg/mL
MIC ([2]; isolate ARC6802 (IHMA 1557073), Spain, UTI, 2017, read-out: MIC): 64 µg/mL
MIC ([2]; isolate ARC6803 (IHMA 1589408), Belgium, UTI, 2017, read-out: MIC): > 64 µg/mL
MIC ([2]; isolate ARC6805 (IHMA 1558650), United States, RTI, 2017, read-out: MIC): 64 µg/mL
MIC ([2]; isolate ARC6808 (IHMA 1557168), Spain, RTI, 2017, read-out: MIC): 64 µg/mL
MIC ([2]; isolate ARC6809 (IHMA 1699528), Guatemala, RTI, 2017, read-out: MIC): > 64 µg/mL
MIC ([2]; isolate ARC6810 (IHMA 1699548), Guatemala, RTI, 2017, read-out: MIC): > 64 µg/mL
MIC ([2]; isolate ARC6812 (IHMA 1699530), Guatemala, RTI, 2017, read-out: MIC): > 64 µg/mL
MIC ([2]; isolate ARC6813 (IHMA 1699543), Guatemala, UTI, 2017, read-out: MIC): > 64 µg/mL
MIC ([2]; isolate ARC6814 (IHMA 1699512), Guatemala, RTI, 2017, read-out: MIC): > 64 µg/mL
MIC ([2]; isolate ARC6815 (IHMA 1699513), Guatemala, RTI, 2017, read-out: MIC): > 64 µg/mL
MIC ([2]; isolate ARC6816 (IHMA 1699521), Guatemala, RTI, 2017, read-out: MIC): > 64 µg/mL
MIC ([2]; isolate ARC6817 (IHMA 1699523), Guatemala, RTI, 2017, read-out: MIC): > 64 µg/mL
MIC ([2]; isolate ARC6818 (IHMA 1683261), Thailand, RTI, 2017, read-out: MIC): > 64 µg/mL
MIC ([2]; isolate ARC6819 (IHMA 1683267), Thailand, RTI, 2017, read-out: MIC): > 64 µg/mL
MIC ([2]; isolate ARC6820 (IHMA 1647876), Argentina, RTI, 2017, read-out: MIC): 64 µg/mL
MIC ([2]; isolate ARC6821 (IHMA 1699517), Guatemala, RTI, 2017, read-out: MIC): > 64 µg/mL
MIC ([2]; isolate ARC6822 (IHMA 1637626), Guatemala, RTI, 2017, read-out: MIC): > 64 µg/mL
MIC ([2]; isolate ARC6823 (IHMA 1620872), Greece, SSSI, 2017, read-out: MIC): > 64 µg/mL
MIC ([2]; isolate ARC6824 (IHMA 1625487), Argentina, BSI, 2017, read-out: MIC): > 64 µg/mL
MIC ([2]; isolate ARC6937 (IHMA 1562926), Spain, UTI, 2017, read-out: MIC): 64 µg/mL
MIC ([2]; isolate ARC6950 (IHMA 1820064), Israel, RTI, 2018, read-out: MIC): > 64 µg/mL
MIC ([2]; isolate ARC6953 (IHMA 1909827), Turkey, IAI, 2018, read-out: MIC): > 64 µg/mL
MIC ([2]; isolate ARC6954 (IHMA 1838192), Guatemala, SSSI, 2018, read-out: MIC): > 64 µg/mL
MIC ([2]; isolate ARC6955 (IHMA 1825425), United States, RTI, 2018, read-out: MIC): 64 µg/mL
MIC ([2]; isolate ARC7008 (IHMA 2009813), Thailand, BSI, 2019, read-out: MIC): > 64 µg/mL
MIC ([2]; isolate ARC7009 (IHMA 2043611), United States, UTI, 2019, read-out: MIC): > 64 µg/mL
MIC ([2]; isolate ARC7010 (IHMA 2043398), United States, RTI, 2019, read-out: MIC): > 64 µg/mL
MIC ([2]; isolate ARC7011 (IHMA 2104553), Germany, RTI, 2019, read-out: MIC): > 64 µg/mL
MIC ([2]; isolate ARC7012 (IHMA 2010001), Thailand, RTI, 2019, read-out: MIC): > 64 µg/mL
MIC ([2]; isolate ARC7013 (IHMA 1962831), Argentina, RTI, 2019, read-out: MIC): > 64 µg/mL
MIC ([2]; isolate ARC7014 (IHMA 2045328), Guatemala, IAI, 2019, read-out: MIC): > 64 µg/mL
MIC ([2]; isolate ARC7015 (IHMA 2045327), Guatemala, UTI, 2019, read-out: MIC): > 64 µg/mL
MIC ([2]; isolate ARC7016 (IHMA 2148441), Brazil, BSI, 2019, read-out: MIC): > 64 µg/mL
MIC ([2]; isolate ARC7017 (IHMA 2148446), Brazil, BSI, 2019, read-out: MIC): > 64 µg/mL
MIC ([2]; isolate ARC7018 (IHMA 2045454), Guatemala, IAI, 2019, read-out: MIC): > 64 µg/mL
MIC ([2]; isolate ARC7019 (IHMA 2114463), Thailand, RTI, 2019, read-out: MIC): > 64 µg/mL
MIC ([2]; isolate ARC7020 (IHMA 2045326), Guatemala, RTI, 2019, read-out: MIC): > 64 µg/mL
MIC ([2]; isolate ARC7021 (IHMA 1966347), Guatemala, RTI, 2019, read-out: MIC): > 64 µg/mL
MIC ([2]; isolate ARC7022 (IHMA 2045319), Guatemala, IAI, 2019, read-out: MIC): > 64 µg/mL
MIC ([2]; isolate ARC7024 (IHMA 2059448), Turkey, RTI, 2019, read-out: MIC): > 64 µg/mL
MIC ([2]; isolate ARC7025 (IHMA 2002121), Spain, RTI, 2019, read-out: MIC): 64 µg/mL
MIC ([2]; isolate ARC7026 (IHMA 2104494), Guatemala, BSI, 2019, read-out: MIC): > 64 µg/mL
MIC ([2]; isolate ARC7082 (IHMA 2160640), Belgium, BSI, 2020, read-out: MIC): > 64 µg/mL
MIC ([2]; isolate ARC7083 (IHMA 2163687), United States, RTI, 2020, read-out: MIC): 64 µg/mL
MIC ([2]; isolate ARC7084 (IHMA 2189596), Germany, RTI, 2020, read-out: MIC): > 64 µg/mL
MIC ([2]; isolate ARC7085 (IHMA 2205747), Guatemala, IAI, 2020, read-out: MIC): > 64 µg/mL
MIC ([2]; isolate ARC7086 (IHMA 2207563), Israel, RTI, 2020, read-out: MIC): 32 µg/mL
MIC ([2]; isolate ARC7088 (IHMA 2215554), Turkey, BSI, 2020, read-out: MIC): > 64 µg/mL
MIC ([2]; isolate ARC7089 (IHMA 2240345), Argentina, BSI, 2020, read-out: MIC): 64 µg/mL
MIC ([2]; isolate ARC7090 (IHMA 2244410), Poland, RTI, 2020, read-out: MIC): > 64 µg/mL
MIC ([2]; isolate ARC7091 (IHMA 2244564), Australia, RTI, 2020, read-out: MIC): > 64 µg/mL
MIC ([2]; isolate ARC7092 (IHMA 2258772), United States, BSI, 2020, read-out: MIC): > 64 µg/mL
MIC ([2]; isolate ARC7093 (IHMA 2258783), United States, RTI, 2020, read-out: MIC): > 64 µg/mL
MIC ([2]; isolate ARC7094 (IHMA 2296423), Turkey, RTI, 2020, read-out: MIC): 64 µg/mL
MIC ([2]; isolate ARC7095 (IHMA 2320843), Turkey, BSI, 2020, read-out: MIC): 32 µg/mL
MIC ([2]; isolate ARC7156 (IHMA 2455450), Greece, RTI, 2021, read-out: MIC): > 64 µg/mL
MIC ([2]; isolate ARC7158 (IHMA 2523738), Italy, BSI, 2021, read-out: MIC): > 64 µg/mL
MIC ([2]; isolate ARC7159 (IHMA 2456229), Malaysia, RTI, 2021, read-out: MIC): > 64 µg/mL
MIC ([2]; isolate ARC7160 (IHMA 2458626), Thailand, RTI, 2021, read-out: MIC): > 64 µg/mL
MIC ([2]; isolate ARC7161 (IHMA 2429252), Ukraine, RTI, 2021, read-out: MIC): 64 µg/mL
MIC ([2]; isolate ARC7162 (IHMA 2411847), United States, BSI, 2021, read-out: MIC): > 64 µg/mL
MIC ([2]; isolate ARC7163 (IHMA 2477704), United States, BSI, 2021, read-out: MIC): > 64 µg/mL
MIC [3]: > 64 µg/mL
%NS (% non-susceptibility) ([4]; 64 non-clonal ABC isolates, 2023 CLSI breakpoints plus FDA breakpoint of 4 µg/mL for SUL-DUR): 100%
MIC50 ([4]; Acinetobacter): > 64 µg/mL
MIC90 ([4]; Acinetobacter): > 64 µg/mL
MIC ([4]; Acinetobacter, read-out: MIC Max): > 64 µg/mL
MIC ([4]; Acinetobacter, read-out: MIC Min): 32 µg/mL
